According to patent US11541041B1, “Compounds that interact with the Ras superfamily for the treatment of cancers, inflammatory diseases, Rasopathies, and fibrotic disease” (Shy Therapeutics LLC, priority 2017, dated 2023):
Read-outs that look alike come from different tables or passages of the source.

Columns and labels:
[1] = target: KRas G12D/Q61H double mutant (Homo sapiens (Human), UniProt P01116, G12D/Q61H); test: Ras GTP binding domain inhibition assay
Protocol: (§1) Buffer-I: • 50 mM Tris, pH 7.5 • 150 mM NaCl (optional) • 1 mM MgCl2 • 1 mM DTT. • KRas G12D mutant protein was expressed as a His-tagged protein. Purified His-KRas G12D protein was diluted in buffer-I to a final concentration of 3-10 μg/ml. • 200 μl of the diluted His-KRas G12D protein was added to a nickel coated 96 well plate and incubated overnight at 4° C. • The next day, wells were washed 3× in 200 μl of Buffer-I. • Then 200 μl of Buffer-I were added to each well in the presence of 1% DMSO. • Tested compounds were added to the protein-coated wells at a concentration of 20 μM, and incubated for 3 hours at room temperature. While performing IC50 measurements a serial dilution of all tested concentrations was prepared.
(§2) Then 22 μl of Cy3-GTP or Cy5-GTP was added to each well. The labeled GTP was incubated for 45 min. at room temperature. • Following GTP incubation, wells were washed 3× in Buffer-I, and 200 μl of Buffer-I were added to each well. • Following washes, the amount of bound labeled-GTP was measured with an Eppendorf AF2200 plate reader.
By substituting KRas G12D mutant protein with KRas G12C mutant, KRas wild type, KRas Q61H mutant, KRas G12D/Q61H double mutant or KRas G12C/Q61H double mutant under the assay conditions described above, KRas G12C mutant KRas wild type, KRas Q61H mutant, KRas G12D/Q61H double mutant and KRas G12C/Q61H double mutant inhibition, respectively, were each determined.

[2] = system: IL6; test: Mouse IL6 quantification assay (LPS-stimulated RAW 264.7, ELISA); type: cell-based; details: RAW 264.7 murine leukemia virus transformed macrophage cell lines, LPS stimulation; for inhibition at 30 µM: Mus musculus, RAW264.7, 30 μM, read-out: IL-6 % Inhibition at 30 μM
Protocol: (§3) Cell lines: Abelson murine leukemia virus transformed macrophage cell line RAW 264.7 was purchased from ATCC and grown in complete DMEM-High Glucose medium supplemented with penicillin (100 U/mL), streptomycin (100 μg/mL), and 10% heat-inactivated FBS at 37° C. in a humidified incubator with 5% CO2.
(§4) Method: Cells were plated at 40000 cells/well density in a 96-wells plate. After a 3-hour incubation, macrophages were starved with DMEM plus 0.5% FBS o/n. The next day the small molecules to be tested were added to the cells in the final concentration of 30 μM (with 0.3% DMSO) 3 hours prior to LPS stimulation (100 ng/ml). After LPS stimulation cells were incubated at 37° C. for 16h. At the end of the incubation period, culture media were collected and production of LPS-induced TNFα and IL6 cytokine was measured using ELISA detection kits.
(§5) Sandwich ELISA: The ELISA Immunoassays Quantikine Mouse TNF-alpha (catalog number MTA00B) and IL6 (catalog number M6000B) were purchased from R&D Systems Inc., Minneapolis, Minn. These 4.5 hours solid phase ELISAs were used to measure mouse TNFα or IL6 levels in macrophages culture supernatants. Assays were executed according to the manufacturer specifications.

[3] = system: TNFα; test: Mouse TNF alpha quantification assay (LPS-stimulated RAW 264.7, ELISA); type: cell-based; details: RAW 264.7 murine leukemia virus transformed macrophage cell lines, LPS stimulation; for inhibition at 30 µM: Mus musculus, RAW264.7, 30 μM, read-out: TNF-α % Inhibition at 30 μM
Protocol: as §3, §4, §5

[4] = target: Rac-1 (Homo sapiens (Human), UniProt P63000); test: Rac and Rho inhibition assay; type: binding; details: read-out: Rac-1 % Inh.
Protocol: as §1, §2
(§6) By substituting KRas G12D mutant protein with either Rac-1 or Rho-A under the assay conditions described in Example 5, Rac-1 and Rho-A inhibition, respectively, were each determined.

[5] = target: Rho-A (Homo sapiens (Human), UniProt P61586); test: Rac and Rho inhibition assay; type: binding; details: read-out: Rho-A % Inh.
Protocol: as §1, §2, §6

[6] = 20 μM compound, read-out: % Inhibition at 20 μM, KRas G12D Q61H
[7] = at 20 μM, read-out: KRas G12D Q61H % Inh.

Sequence of Rho-A (P61586 whole entry): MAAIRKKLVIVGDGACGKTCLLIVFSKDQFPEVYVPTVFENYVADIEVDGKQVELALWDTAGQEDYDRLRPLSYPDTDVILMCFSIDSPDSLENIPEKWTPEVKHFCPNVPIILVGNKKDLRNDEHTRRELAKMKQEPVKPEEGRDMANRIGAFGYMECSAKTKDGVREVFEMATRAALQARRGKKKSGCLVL
Sequence of KRas G12D/Q61H double mutant (P01116-2 other isoform, or with tags, fused parts or gaps G12D/Q61H): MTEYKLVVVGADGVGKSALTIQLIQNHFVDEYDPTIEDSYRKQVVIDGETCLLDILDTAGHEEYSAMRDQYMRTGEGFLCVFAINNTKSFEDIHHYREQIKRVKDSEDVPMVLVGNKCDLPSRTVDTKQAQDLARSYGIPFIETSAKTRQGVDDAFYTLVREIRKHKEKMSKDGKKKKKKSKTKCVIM

Row | SMILES | inhibition at 20 µM [4] [%] | inhibition at 20 µM [5] [%] | also measured
1 | CCN(Cc1cnc(S(=O)(=O)N(C)C)o1)c1ccccc1 | – | – | inhibition at 20 µM [1, 6]: 25 to 50%
2 | Cc1cc2nc(-c3ccccn3)nc(O)c2s1 [drawing 2263] | – | – | inhibition at 30 µM [2]: 1 to 25%; inhibition at 30 µM [3]: 1 to 25%
3 | O=C(c1ccc(S(=O)(=O)N2CCOCC2)cc1)N(Cc1ccccc1)Cc1cccs1 | – | – | inhibition at 20 µM [1, 6]: 1 to 25%
4 | Oc1nc(-c2ccccn2)nc2c(-c3cncc(C(F)(F)F)c3)csc12 | 1 to 25 | – | –
5 | COc1ccc(CCNC(=O)c2csc3nc(-c4ccccn4)nc(N4CCSCC4)c23)cn1 [drawing 3751] | 25 to 50 | 1 to 25 | inhibition at 20 µM [1, 7]: 25 to 50%
6 | COc1ccc(N2CCN(C(=O)c3csc4c(O)cc(-c5ccccn5)cc34)CC2)cc1O | 76 to 100 | 76 to 100 | inhibition at 20 µM [1, 7]: 1 to 25%
7 | COC(=O)c1csc2nc(-c3ccccn3)nc(O)c12 | – | – | inhibition at 30 µM [2]: 51 to 75%; inhibition at 30 µM [3]: 0%
8 | O=C(c1csc2c(O)nc(-c3ccccn3)nc12)N1CCN(c2ccc(O)c(O)c2)CC1 | 76 to 100 | 76 to 100 | inhibition at 20 µM [1, 7]: 51 to 75%
9 | Oc1nc(-c2ccccn2)nc2c(-c3cccnc3)c(C(F)(F)F)sc12 | – | – | inhibition at 30 µM [2]: 51 to 75%; inhibition at 30 µM [3]: 0%
10 | O=C(NCCc1cnc(O)nc1)c1csc2nc(-c3ccccn3)nc(N3CCSCC3)c12 [drawing 3752] | 51 to 75 | 51 to 75 | inhibition at 20 µM [1, 7]: 25 to 50%
11 | COCC(C)Nc1nc(-c2ccccc2)nc2sc(-c3ccncc3)c(-c3ccccc3)c12 (centres unmarked) | – | – | inhibition at 30 µM [2]: 0%; inhibition at 30 µM [3]: 26 to 50%
12 | O=C(O)c1csc2nc(-c3ccccn3)nc(O)c12 | – | – | inhibition at 30 µM [2]: 1 to 25%; inhibition at 30 µM [3]: 1 to 25%
13 | C=C(CNc1nc(-c2ccccn2)nc2scc(-c3ccccc3)c12)NC | – | – | inhibition at 20 µM [1, 6]: 25 to 50%
14 | COc1cnc(CNC(=O)c2c(C)sc3c(O)nc(-c4ccccn4)nc23)[nH]c1=O | 1 to 25 | 1 to 25 | –
15 | COc1cc(-c2csc3c(O)nc(-c4ccccn4)nc23)cnc1C(F)(F)F | – | 51 to 75 | –
16 | COc1ccc(CCNC(=O)c2csc3nc(-c4ccccn4)nc(N4CCSCC4)c23)cn1 [drawing 2280] | – | – | inhibition at 30 µM [2]: 26 to 50%; inhibition at 30 µM [3]: 0%
17 | O=C(c1csc2c(O)nc(-c3ccccn3)nc12)N1CCNC(c2ccc(Cl)cc2)C1 (centres unmarked) | 76 to 100 | 76 to 100 | –
18 | CN(C(=O)c1ccc(COc2ccccc2F)o1)c1cccs1 | – | – | inhibition at 20 µM [1, 6]: 25 to 50%
19 | COCc1ccc(-c2csc3c(O)nc(-c4ccccn4)nc23)cc1F | 76 to 100 | – | –
20 | C=CCc1cc(COC)ccc1OCC(=O)NCc1ccc(OC)cc1 | – | – | inhibition at 20 µM [1, 6]: 25 to 50%
21 | Cc1sc2c(O)nc(-c3ccccn3)nc2c1Br [drawing 2319] | – | – | IL-6 % Inhibition at 30 μM ([2]; 30 μM): A (A = 1-25% inhibition)
22 | Cc1sc2c(O)nc(-c3ccccn3)nc2c1C(=O)N1CCN(Cc2cccc(O)c2)CC1 | 76 to 100 | 76 to 100 | –
23 | Oc1nc(-c2ccccn2)nc2c(-c3ccc4c(c3)CCCO4)csc12 | – | 51 to 75 | –
24 | O=C(c1csc2c(O)nc(-c3ccccn3)nc12)N1CCNC(c2cn[nH]c2)C1 (centres unmarked) | 76 to 100 | – | –
25 | Oc1nc(-c2ccccn2)nc2c(C3CC3)csc12 | – | 51 to 75 | –
26 | Oc1nc(-c2ccccn2)nc2c(-c3ccccc3C(F)F)csc12 | 76 to 100 | 76 to 100 | –
27 | Oc1nc(-c2ccccn2)nc2c(-c3cc(C(F)(F)F)ccc3F)csc12 | – | 1 to 25 | –
28 | CN(C)Cc1ccc(-c2csc3c(O)nc(-c4ccccn4)nc23)cc1F | 76 to 100 | 76 to 100 | –
29 | Cc1sc2c(O)nc(-c3ccccn3)nc2c1Br [drawing 2383] | – | – | TNF-α % Inhibition at 30 μM ([3]; 30 μM): 0 (0 = 0% inhibition)
30 | OC[C@H]1O[C@@H](c2csc3c2N=C(c2ccccn2)NC3O)[C@H](O)[C@@H]1O (some centres unmarked) [drawing 3871] | 51 to 75 | 51 to 75 | –
